In EP4389751A1, “HETEROCYCLIC COMPOUNDS AND USES THEREOF” (Kumquat Biosciences Inc., priority 2021, dated 2024):

Tests used:
[1] = tested on: GP2D cells; test: Cell proliferation assay (CellTiter-Glo), K-Ras G12D cells; type: cell-based; details: GP2D cells (K-Ras G12D); read-out: Inhibition of GP2D Cells (IC50)
Method in brief: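 GP2D (K-Ras G12D) cells seeded in DMEM with 2 mM glutamine and 10% FBS, then dosed next day with a dilution series (e.g., 9-point 3-fold). Viability read by CellTiter-Glo luminescence after about 5 days. IC50 from four-parameter fit.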

[2] = biological target: T1, KRAS protein (His-tagged GDP-loaded G12S 1-169) (Homo sapiens, UniProt P01116, G12S); test: Covalent modification of KRAS protein, intact-protein LC-MS; type: binding; details: 24hrs at room temperature, KRAS protein ~2 µM
T1 construct: His-tagged GDP-loaded G12S 1-169
Method in brief: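 His-tagged GDP-loaded KRAS 1-169 (~2 µM) incubated with compound 24 h at room temperature, then quenched with formic acid. Intact-protein LC-ESI-MS on C4 column; deconvoluted peak intensities of unmodified and adducted protein give percent covalent modification.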

[3] = biological target: T2, K-Ras G12S (Homo sapiens, UniProt P01116, G12S); test: HTRF assay of the K-Ras / SOS1 interaction; type: biochemical; details: IC50 (against K-Ras G12D) to IC50 (against K-Ras G12S)
T2 construct: made in house; host or cells: E. coli (e.g., BL21 (DE3))
Method in brief: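 GST-K-Ras G12S with anti-GST-Eu donor and His-hSOS1 with anti-6His-XL665 acceptor in ~5 mM HEPES pH 7.4, ~150 mM NaCl, 1 mM DTT, 0.05% BSA, 0.0025% Igepal. Read after ~10 min or longer; IC50 from 665/620 nm ratio, duplicates at 10 µM down to 0.01 µM.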

Nc1nc2c(-c3c(Cl)cc4c(N5CC6(CCCN(C(=O)n7cncn7)C6)C5)nc(OC[C@@]56CCCN5C[C@H](F)C6)nc4c3F)ccc(F)c2s1 [Compound A230, (2-(7-(2-amino-7-fluorobenzo[d]thiazol-4-yl)-6-chloro-8-fluoro-2-(((2R,7aS)-2-fluorotetrahydro-1H-pyrrolizin-7a(5H)-yl)methoxy)quinazolin-4-yl)-2,6-diazaspiro[3.5]nonan-6-yl)(1H-1,2,4-triazol-1-yl)methanone]
IC50 [1]: 1000 to 10000 nM
% G12S Modification at 24 hr. [2]: +++ (+++ indicates greater than 20% labelling)
Ratio of IC50 KRAS G12D vs. IC50 KRAS G12S [3]: A (A: indicates that the ratio of IC50 against KrasG12D vs. IC50 against KrasG12S is 1-fold or greater)

Nc1nc2c(-c3c(Cl)cc4c(N5CCOC6(CCN(C(=O)n7cncn7)C6)C5)nc(OC[C@@]56CCCN5C[C@H](F)C6)nc4c3F)ccc(F)c2s1 (stereo partly drawn) [Compound A221, (9-(7-(2-amino-7-fluorobenzo[d]thiazol-4-yl)-6-chloro-8-fluoro-2-(((2R,7aS)-2-fluorotetrahydro-1H-pyrrolizin-7a(5H)-yl)methoxy)quinazolin-4-yl)-6-oxa-2,9-diazaspiro[4.5]decan-2-yl)(1H-1,2,4-triazol-1-yl)methanone]
IC50 [1]: 1000 to 10000 nM
% G12S Modification at 24 hr. [2]: ++ (++ indicates between about 1%- 20% labelling)
Ratio of IC50 KRAS G12D vs. IC50 KRAS G12S [3]: A (A: indicates that the ratio of IC50 against KrasG12D vs. IC50 against KrasG12S is 1-fold or greater)

Nc1nc2c(-c3c(Cl)cc4c(N5CCOC6(CN(C(=O)n7cncn7)C6)C5)nc(OC[C@@]56CCCN5C[C@H](F)C6)nc4c3F)ccc(F)c2s1 [Compound A273, (8-(7-(2-amino-7-fluorobenzo[d]thiazol-4-yl)-6-chloro-8-fluoro-2-(((2R,7aS)-2-fluorotetrahydro-1H-pyrrolizin-7a(5H)-yl)methoxy)quinazolin-4-yl)-5-oxa-2,8-diazaspiro[3.5]nonan-2-yl)(1H-1,2,4-triazol-1-yl)methanone]
IC50 [1]: 1000 to 10000 nM
% G12S Modification at 24 hr. [2]: +++ (+++ indicates greater than 20% labelling)
Ratio of IC50 KRAS G12D vs. IC50 KRAS G12S [3]: A (A: indicates that the ratio of IC50 against KrasG12D vs. IC50 against KrasG12S is 1-fold or greater)

N#Cc1cnn(C(=O)N2CCN(c3nc(OC[C@@]45CCCN4C[C@H](F)C5)nc4c(F)c(-c5ccc(F)c6sc(N)nc56)c(Cl)cc34)CC(F)(F)C2)c1 [Compound A126, 1-(4-(7-(2-amino-7-fluorobenzo[d]thiazol-4-yl)-6-chloro-8-fluoro-2-(((2R,7aS)-2-fluorotetrahydro-1H-pyrrolizin-7a(5H)-yl)methoxy)quinazolin-4-yl)-6,6-difluoro-1,4-diazepane-1-carbonyl)-1Hpyrazole-4-carbonitrile]
IC50 [1]: 1000 to 10000 nM
% G12S Modification at 24 hr. [2]: +++ (+++ indicates greater than 20% labelling)
Ratio of IC50 KRAS G12D vs. IC50 KRAS G12S [3]: A (A: indicates that the ratio of IC50 against KrasG12D vs. IC50 against KrasG12S is 1-fold or greater)

CC(=O)c1c(F)ccc2cc(O)cc(-c3ccc4c(N5CCCC6(CN(C(=O)n7cncn7)C6)C5)nc(OC[C@@]56CCCN5C[C@H](F)C6)nc4c3F)c12 [Compound A154, 1-(8-(4-(2-(1H-1,2,4-triazole-1-carbonyl)-2,6-diazaspiro[3.5]nonan-6-yl)-8-fluoro-2-(((2R,7aS)-2-fluorotetrahydro-1H-pyrrolizin-7a(5H)-yl)methoxy)quinazolin-7-yl)-2-fluoro-6-hydroxynaphthalen-1-yl)ethan-1-one]
IC50 [1]: 1000 to 10000 nM
% G12S Modification at 24 hr. [2]: +++ (+++ indicates greater than 20% labelling)
Ratio of IC50 KRAS G12D vs. IC50 KRAS G12S [3]: A (A: indicates that the ratio of IC50 against KrasG12D vs. IC50 against KrasG12S is 1-fold or greater)

C#Cc1c(F)ccc2cccc(-c3ccc4c(N5CCN(C(=O)n6cncn6)CC(F)(F)C5)nc(OC[C@@]56CCCN5C[C@H](F)C6)nc4c3F)c12 [Compound A107, (4-(7-(8-ethynyl-7-fluoronaphthalen-1-yl)-8-fluoro-2-(((2R,7aS)-2-fluorotetrahydro-1H-pyrrolizin-7 a(5H)-yl)methoxy)quinazolin-4-yl)-6,6-difluoro-1 ,4-diazepan-1-yl)(1H-1,2,4-triazol-1-yl)methanone]
IC50 [1]: 1000 to 10000 nM
% G12S Modification at 24 hr. [2]: ++ (++ indicates between about 1%- 20% labelling)
Ratio of IC50 KRAS G12D vs. IC50 KRAS G12S [3]: A (A: indicates that the ratio of IC50 against KrasG12D vs. IC50 against KrasG12S is 1-fold or greater)

N#Cc1c(N)sc2c(F)ccc(-c3c(Cl)cc4c(N5CC6(CCCN(C(=O)n7cncn7)C6)C5)nc(OC[C@@]56CCCN5C[C@H](F)C6)nc4c3F)c12 [Compound A266, 4-(4-(6-(1H-1,2,4-triazole-1-carbonyl)-2,6-diazaspiro[3.5]nonan-2-yl)-6-chloro-8-fluoro-2-(((2R,7aS)-2-fluorotetrahydro-1H-pyrrolizin-7a(5H)-yl)methoxy)quinazolm-7-yl)-2-amino-7-fluorobenzo[b]thiophene-3-carbonitrile]
IC50 [1]: 1000 to 10000 nM
% G12S Modification at 24 hr. [2]: +++ (+++ indicates greater than 20% labelling)
Ratio of IC50 KRAS G12D vs. IC50 KRAS G12S [3]: A (A: indicates that the ratio of IC50 against KrasG12D vs. IC50 against KrasG12S is 1-fold or greater)

Nc1nc2c(-c3c(Cl)cc4c(N5CCC6(CN(C(=O)n7cncn7)C6)C5)nc(OC[C@@]56CCCN5C[C@H](F)C6)nc4c3F)ccc(F)c2s1 [Compound A201, (6-(7-(2-amino-7-fluorobenzo[d]thiazol-4-yl)-6-chloro-8-fluoro-2-(((2R,7aS)-2-fluorotetrahydro-1H-pyrrolizin-7a(5H)-yl)methoxy)quinazolm-4-yl)-2,6-diazaspiro[3.4]octan-2-yl)(1H-1,2,4-triazol-1-yl)methanone]
IC50 [1]: 1000 to 10000 nM
% G12S Modification at 24 hr. [2]: +++ (+++ indicates greater than 20% labelling)
Ratio of IC50 KRAS G12D vs. IC50 KRAS G12S [3]: A (A: indicates that the ratio of IC50 against KrasG12D vs. IC50 against KrasG12S is 1-fold or greater)

N#Cc1nccn1C(=O)N1CCN(c2nc(OC[C@@]34CCCN3C[C@H](F)C4)nc3c(F)c(-c4ccc(F)c5sc(N)nc45)c(Cl)cc23)CC(F)(F)C1 [Compound A204, 1-(4-(7-(2-amino-7-fluorobenzo[d]thiazol-4-yl)-6-chloro-8-fluoro-2-(((2R,7aS)-2-fluorotetrahydro-1H-pyrrolizin-7a(5H)-yl)methoxy)quinazolin-4-yl)-6,6-difluoro-1,4-diazepane-1 - carbonyl)-1H-imidazole-2-carbonitrile]
IC50 [1]: 1000 to 10000 nM
% G12S Modification at 24 hr. [2]: ++ (++ indicates between about 1%- 20% labelling)
Ratio of IC50 KRAS G12D vs. IC50 KRAS G12S [3]: A (A: indicates that the ratio of IC50 against KrasG12D vs. IC50 against KrasG12S is 1-fold or greater)

N#Cc1c(N)sc2c(F)ccc(-c3c(Cl)cc4c(N5CCC6C5CCCN6C(=O)n5cncn5)nc(OC[C@@]56CCCN5C[C@H](F)C6)nc4c3F)c12 (stereo partly drawn) [Compound A181, 4-(4-(4-(1H-1,2,4-triazole-1-carbonyl)octahydro-1H-pyrrolo[3,2-b]pyridin-1-yl)-6-chloro-8-fluoro-2-(((2R,7aS)-2-fluorotetrahydro-1H-pyrrolizin-7a(5H)-yl)methoxy)quinazolm-7-yl)-2-amino-7-fluorobenzo[b]thiophene-3-carbonitrile]
IC50 [1]: ≤ 1000 nM
% G12S Modification at 24 hr. [2]: +++ (+++ indicates greater than 20% labelling)
Ratio of IC50 KRAS G12D vs. IC50 KRAS G12S [3]: A (A: indicates that the ratio of IC50 against KrasG12D vs. IC50 against KrasG12S is 1-fold or greater)

Nc1nc2c(-c3c(Cl)cc4c(N5CC6(CN(C(=O)n7cncn7)CCO6)C5)nc(OC[C@@]56CCCN5C[C@H](F)C6)nc4c3F)ccc(F)c2s1 [Compound A268, (2-(7-(2-amino-7-fluorobenzo[d]thiazol-4-yl)-6-chloro-8-fluoro-2-(((2R,7aS)-2-fluorotetrahydro-1H-pyrrolizin-7a(5H)-yl)methoxy)quinazolin-4-yl)-5-oxa-2,8-diazaspiro[3.5]nonan-8-yl)(1H-1,2,4-triazol-1-yl)methanone]
IC50 [1]: 1000 to 10000 nM
% G12S Modification at 24 hr. [2]: +++ (+++ indicates greater than 20% labelling)
Ratio of IC50 KRAS G12D vs. IC50 KRAS G12S [3]: A (A: indicates that the ratio of IC50 against KrasG12D vs. IC50 against KrasG12S is 1-fold or greater)

N#C[C@H]1CN(c2nc(OC[C@@]34CCCN3C[C@H](F)C4)nc3c(F)c(-c4ccc(F)c5sc(N)nc45)c(Cl)cc23)CCN1C(=O)n1cncn1 [Compound A157, (2R)-4-(7-(2-amino-7-fluorobenzo[d]thiazol-4-yl)-6-chloro-8-fluoro-2-(((2R,7aS)-2-fluorotetrahydro-1H-pyrrolizin-7a(5H)-yl)methoxy)quinazolin-4-yl)-1-(1H-1,2,4-triazole-1-carbonyl)piperazine-2-carbonitrile]
IC50 [1]: 1000 to 10000 nM
% G12S Modification at 24 hr. [2]: ++ (++ indicates between about 1%- 20% labelling)
Ratio of IC50 KRAS G12D vs. IC50 KRAS G12S [3]: A (A: indicates that the ratio of IC50 against KrasG12D vs. IC50 against KrasG12S is 1-fold or greater)
